Assay: xn = mol fraction of the nth substance listed
Conditions: 101 kPa, Liquid

CCOS(=O)(=O)[O-].CCn1cc[n+](C)c1 [1-ethyl-3-methylimidazolium ethyl sulfate] + CO
mass density [kg/m3]
Conditions	278.15 K	283.15 K	288.15 K	293.15 K	298.15 K	303.15 K	308.15 K
x2 = 0	1251.04	1247.5	1244.04	1240.66	1237.27	1233.89	1230.51
x2 = 0.005	1250.51	1246.96	1243.52	1240.13	1236.74	1233.36	1229.98
x2 = 0.0097	1250.12	1246.57	1243.14	1239.75	1236.36	1232.97	1229.59
x2 = 0.015	1249.8	1246.24	1242.81	1239.42	1236.02	1232.63	1229.24
x2 = 0.0252	1248.78	1245.23	1241.82	1238.42	1235.02	1231.63	1228.25
x2 = 0.0403	1247.44	1243.88	1240.48	1237.07	1233.67	1230.27	1226.88
x2 = 0.0598	1245.64	1242.13	1238.72	1235.31	1231.89	1228.49	1225.09
x2 = 0.08	1243.77	1240.29	1236.86	1233.44	1230.02	1226.61	1223.2
x2 = 0.1001	1241.79	1238.35	1234.91	1231.47	1228.05	1224.63	1221.22
x2 = 0.15	1236.8	1233.34	1229.88	1226.42	1222.98	1219.54	1216.12
x2 = 0.2	1231.24	1227.75	1224.26	1220.78	1217.32	1213.87	1210.42
x2 = 0.3	1218.1	1214.56	1211.02	1207.5	1203.99	1200.5	1197.01
x2 = 0.4	1201.9	1198.3	1194.72	1191.15	1187.59	1184.05	1180.51
x2 = 0.4999	1180.84	1177.18	1173.54	1169.91	1166.29	1162.69	1159.1
x2 = 0.6	1153.55	1149.82	1146.1	1142.4	1138.71	1135.03	1131.37
x2 = 0.7	1115.57	1111.73	1107.91	1104.11	1100.31	1096.53	1092.76
x2 = 0.8	1059.76	1055.79	1051.82	1047.87	1043.92	1039.98	1036.05
x2 = 0.9	971.1	966.89	962.68	958.49	954.29	950.1	945.91
x2 = 0.95	902.84	898.44	894.05	889.67	885.26	880.86	876.46
x2 = 0.98	849.24	844.69	840.15	835.63	831.05	826.49	821.91

CCOS(=O)(=O)[O-].CCn1cc[n+](C)c1 [1-ethyl-3-methylimidazolium ethyl sulfate] + ClCCl
x2 = 0
Conditions	mass density [kg/m3]
278.15 K	1251.04
283.15 K	1247.5
288.15 K	1244.04
293.15 K	1240.66
298.15 K	1237.27
303.15 K	1233.89
308.15 K	1230.51

CCOS(=O)(=O)[O-].CCn1cc[n+](C)c1 [1-ethyl-3-methylimidazolium ethyl sulfate] + O
mass density [kg/m3]
Conditions	278.15 K	283.15 K	288.15 K	293.15 K	298.15 K	303.15 K	308.15 K
x2 = 0	1250.63	1247.18	1243.79	1240.39	1237	1233.63	1230.27
x2 = 0.0136	1250.46	1246.91	1243.47	1240.09	1236.7	1233.31	1229.93
x2 = 0.0253	1250.19	1246.63	1243.21	1239.82	1236.42	1233.03	1229.65
x2 = 0.0415	1249.8	1246.24	1242.85	1239.46	1236.06	1232.67	1229.29
x2 = 0.0729	1249.17	1245.66	1242.27	1238.88	1235.48	1232.09	1228.7
x2 = 0.1429	1247.67	1244.26	1240.85	1237.44	1234.04	1230.64	1227.25
x2 = 0.2344	1245.53	1242.12	1238.69	1235.28	1231.86	1228.46	1225.06
x2 = 0.392	1239.94	1236.5	1233.06	1229.63	1226.2	1222.78	1219.36
x2 = 0.5695	1228.84	1225.35	1221.87	1218.47	1214.98	1211.55	1208.12
x2 = 0.7408	1207.89	1204.4	1200.9	1197.39	1193.86	1190.33	1186.78
x2 = 0.9032	1149.37	1146.18	1142.95	1139.65	1136.37	1133.02	1129.61
x2 = 0.9577	1094.19	1091.9	1089.5	1086.99	1084.4	1081.7	1078.89
x2 = 0.984	1045.11	1043.88	1042.43	1040.71	1038.74	1036.44	1033.81
x2 = 0.9923	1023.67	1022.91	1021.88	1020.61	1019.12	1017.42	1015.54
x2 = 0.9963	1012.18	1011.69	1010.85	1009.45	1008.24	1006.56	1004.39

Source: the NIST ThermoML archive (doi:10.1021/je1002237)
